Test results from ChEMBL document CHEMBL4483862, “Open-source discovery of chemical leads for next-generation chemoprotective antimalarials” (2018).

System: Plasmodium berghei
Test: Luciferase/luciferin-expressing antifolate-resistant parasites were used to infect a culture of HepG2 cells that were pre-incubated with compounds. Infected hepatocytes emit light due to the luciferase reaction. Assay results are presented as the percent inhibition of light emission compared to control. […]
Assay type: functional
Details: sporozoite; for IC90: read-out: LUCIFERASE INFECTION ASSAY - IC90

| Compound | IC90 | other results |
| --- | --- | --- |
| COc1ccc(C2CC(=O)c3cnn(-c4nc(C)cc(C)n4)c3C2)cc1 (centres undefined) | 4.91 µM | IC50 (PBLUC_HILL_SLOPE 4.21, PBLUC_R_SQUARED 0.368, read-out: LUCIFERASE INFECTION ASSAY - IC50): 2.91 µM |
| COc1cc(OC)nc(Nc2nc(C(N)Cc3ccccc3)cs2)n1 (centres undefined) | 7.54 µM | IC50 (PBLUC_HILL_SLOPE 4.21, PBLUC_R_SQUARED 0.584, read-out: LUCIFERASE INFECTION ASSAY - IC50): 4.47 µM |
| NC(c1csc(Nc2ccc(C(F)(F)F)cn2)n1)C1CCCCC1 (centres undefined) | > 9.26 µM | IC50 (PBLUC_HILL_SLOPE 4.28, PBLUC_R_SQUARED 0.42, read-out: LUCIFERASE INFECTION ASSAY - IC50): 7.59 µM |
| Cc1ccc(C(NCC(=O)Nc2sccc2C(N)=O)c2cccs2)cc1 (centres undefined) | 3.67 µM | IC50 (PBLUC_HILL_SLOPE 4.31, PBLUC_R_SQUARED 0.32, read-out: LUCIFERASE INFECTION ASSAY - IC50): 2.2 µM |
| Cc1nc(SCC(=O)Nc2ccccc2C#N)c2c(-c3cccs3)csc2n1 | > 10 µM | IC50 (PBLUC_HILL_SLOPE 4.22, PBLUC_R_SQUARED 0.391, read-out: LUCIFERASE INFECTION ASSAY - IC50): 6.05 µM |
| NS(=O)(=O)c1ccc(CCNC(=O)COc2ccccc2Cc2ccccc2)cc1 | 9.31 µM | IC50 (PBLUC_HILL_SLOPE 4.18, PBLUC_R_SQUARED 0.0848, read-out: LUCIFERASE INFECTION ASSAY - IC50): 5.51 µM |
| COC(=O)c1c(NC(=O)c2ccco2)c2cc(NC3CCN(C(C)C)CC3)cnc2n1CCC(C)C | > 6.66 µM | IC50 (PBLUC_HILL_SLOPE 4.28, PBLUC_R_SQUARED 0.61, read-out: LUCIFERASE INFECTION ASSAY - IC50): 4.64 µM |
| CC(Oc1ccc(Cl)cc1Cl)C(=O)Nc1nc(-c2c[nH]c(C(N)=O)c2)cs1 (centres undefined) | 2.99 µM | IC50 (PBLUC_HILL_SLOPE 4.28, PBLUC_R_SQUARED 0.703, read-out: LUCIFERASE INFECTION ASSAY - IC50): 1.79 µM |
| Cn1/c(=N/NC=C2CCC/C(=C/c3ccccc3)C2=O)sc2ccccc21 | > 10 µM | IC50 (PBLUC_HILL_SLOPE 4.26, PBLUC_R_SQUARED 0.398, read-out: LUCIFERASE INFECTION ASSAY - IC50): 8.32 µM |
| COc1ccc(-c2csc3ncnc(NCC4(N5CCOCC5)CCCCC4)c23)cc1 | 9.48 µM | IC50 (PBLUC_HILL_SLOPE 4.26, PBLUC_R_SQUARED 0.161, read-out: LUCIFERASE INFECTION ASSAY - IC50): 5.66 µM |
| CC(C)(C)c1ccccc1NC(=O)Nc1nc(C(N)Cc2ccc(Cl)cc2)cs1 (centres undefined) | 5.51 µM | IC50 (PBLUC_HILL_SLOPE 4.24, PBLUC_R_SQUARED 0.754, read-out: LUCIFERASE INFECTION ASSAY - IC50): 3.28 µM |
| O=C(c1cn2ccccc2n1)N1CCN(C(c2ccccc2)c2ccccc2)CC1 | > 10 µM | IC50 (PBLUC_HILL_SLOPE 4.26, PBLUC_R_SQUARED 0.0991, read-out: LUCIFERASE INFECTION ASSAY - IC50): 6.51 µM |
| N#C/C(=C\Nc1cc(C(F)(F)F)cc(C(F)(F)F)c1)S(=O)(=O)c1ccc(OC(F)(F)F)cc1 | > 6.54 µM | IC50 (PBLUC_HILL_SLOPE 4.15, PBLUC_R_SQUARED 0.029, read-out: LUCIFERASE INFECTION ASSAY - IC50): > 6.54 µM |
| NC(=O)c1ccc(Nc2nc(-c3cccnc3)nc3ccccc23)cc1 | > 10 µM | IC50 (PBLUC_HILL_SLOPE 4.21, PBLUC_R_SQUARED 0.0982, read-out: LUCIFERASE INFECTION ASSAY - IC50): > 10 µM |
| CS(=O)(=O)c1ccc(-c2cnc3c(NC=O)cc(-c4ccccc4)cn23)cc1 | > 8.43 µM | IC50 (PBLUC_HILL_SLOPE 4.26, PBLUC_R_SQUARED 0.756, read-out: LUCIFERASE INFECTION ASSAY - IC50): 6.43 µM |
| CCOc1cccc(-c2cn3c(-c4ccc(C#N)cc4)cnc3cn2)c1 | > 9.69 µM | IC50 (PBLUC_HILL_SLOPE 4.27, PBLUC_R_SQUARED 0.47, read-out: LUCIFERASE INFECTION ASSAY - IC50): 6.18 µM |

| Compound | IC90 | other results |
| --- | --- | --- |
| CC(C)Cc1nc2oc3c(NCCO)ncnc3c2c2c1CCCC2 | > 9.69 µM | IC50 (PBLUC_HILL_SLOPE 4.31, PBLUC_R_SQUARED 0.188, read-out: LUCIFERASE INFECTION ASSAY - IC50): 6.98 µM |
| FC(F)(F)Oc1ccc(Nc2nnc(Sc3ncnc4ccsc34)s2)cc1 | > 10 µM | IC50 (PBLUC_HILL_SLOPE 4.22, PBLUC_R_SQUARED 0.601, read-out: LUCIFERASE INFECTION ASSAY - IC50): 6.4 µM |
| COc1ccccc1/C=C(/C(=O)OCc1cc(=O)n2cc(C)ccc2n1)c1ccccc1 | > 10 µM | IC50 (PBLUC_HILL_SLOPE 4.19, PBLUC_R_SQUARED 0.0967, read-out: LUCIFERASE INFECTION ASSAY - IC50): 6.55 µM |
| O=C(Nc1ccc(F)cc1)C(Sc1nnc(-c2cccs2)[nH]1)c1ccccc1 (centres undefined) | > 10 µM | IC50 (PBLUC_HILL_SLOPE 4.17, PBLUC_R_SQUARED 0.509, read-out: LUCIFERASE INFECTION ASSAY - IC50): 6.11 µM |
| COc1ccc(-n2nc(C)c3c(=O)c(Cl)c(C)[nH]c32)cc1 | > 10.9 µM | IC50 (PBLUC_HILL_SLOPE 4.15, PBLUC_R_SQUARED 0.0529, read-out: LUCIFERASE INFECTION ASSAY - IC50): 10.4 µM |
| O=C(NC1CC1)c1ccc(-c2cnc3cnc(-c4ccc(CNc5ccccc5)cc4)cn23)cc1 | > 7.18 µM | IC50 (PBLUC_HILL_SLOPE 4.2, PBLUC_R_SQUARED 0.624, read-out: LUCIFERASE INFECTION ASSAY - IC50): 4.59 µM |
| COc1ccc(-c2cnc3cnc(-c4ccc(N5CCN(C)CC5)cc4)cn23)cc1 | > 8.26 µM | IC50 (PBLUC_HILL_SLOPE 4.21, PBLUC_R_SQUARED 0.0945, read-out: LUCIFERASE INFECTION ASSAY - IC50): 6.36 µM |
| N#Cc1cccc(Nc2nc(C(F)(F)F)nc3ccccc23)c1 | > 10 µM | IC50 (PBLUC_HILL_SLOPE 4.2, PBLUC_R_SQUARED 0.258, read-out: LUCIFERASE INFECTION ASSAY - IC50): 8.32 µM |
| Cc1ccccc1-c1nc2oc3ccccc3c(=O)c2c(=O)n1Cc1ccccc1 | 5.78 µM | IC50 (PBLUC_HILL_SLOPE 4.15, PBLUC_R_SQUARED 0.52, read-out: LUCIFERASE INFECTION ASSAY - IC50): 3.4 µM |
| CC(c1ccccc1)n1c(SCCSc2cc(Cl)ccc2Cl)nc2ccccc2c1=O (centres undefined) | > 10 µM | IC50 (PBLUC_HILL_SLOPE 4.25, PBLUC_R_SQUARED 0.473, read-out: LUCIFERASE INFECTION ASSAY - IC50): 6.21 µM |
| COc1ccc(/C=C2\CCCC3C2=NN(C(=O)Cn2cc(C(F)(F)F)ccc2=O)C3c2ccc(OC)cc2)cc1 (centres undefined) | 8.1 µM | IC50 (PBLUC_HILL_SLOPE 4.26, PBLUC_R_SQUARED 0.126, read-out: LUCIFERASE INFECTION ASSAY - IC50): 4.84 µM |
| CCCOc1ccc(/C=N/NC(=S)NCCCN2CCOCC2)c(OCCC)c1 | > 10 µM | IC50 (PBLUC_HILL_SLOPE 4.29, PBLUC_R_SQUARED 0.235, read-out: LUCIFERASE INFECTION ASSAY - IC50): 8.13 µM |
| COCOc1ccc(-c2cc(-c3ccc(S(C)(=O)=O)cc3)cnc2N)cc1 | 1.3 µM | IC50 (PBLUC_HILL_SLOPE 4.16, PBLUC_R_SQUARED 0.931, read-out: LUCIFERASE INFECTION ASSAY - IC50): 0.765 µM |
| CCOc1ccc(OCC)c(NC(=O)/C=C/c2ccc(OCc3cn4ccccc4n3)cc2)c1 | > 10 µM | IC50 (PBLUC_HILL_SLOPE 4.17, PBLUC_R_SQUARED 0.3, read-out: LUCIFERASE INFECTION ASSAY - IC50): 8.87 µM |
| CCCCCC(/C=N/Nc1nncc2ccccc12)=C\c1ccccc1 | 9.96 µM | IC50 (PBLUC_HILL_SLOPE 4.26, PBLUC_R_SQUARED 0.663, read-out: LUCIFERASE INFECTION ASSAY - IC50): 5.95 µM |
| O=C(Cc1ccc(Cl)cc1)N1CCc2nc(NCc3cccc(Oc4ccccc4)c3)ncc2C1 | > 6.8 µM | IC50 (PBLUC_HILL_SLOPE 4.18, PBLUC_R_SQUARED 0.529, read-out: LUCIFERASE INFECTION ASSAY - IC50): 4.95 µM |
